In brackets after ≈: the same amount, converted by molar mass.
Experiments:
[1] = Aqueous solubility; type: physicochemical; conditions: aqueous medium (not further specified); read-out: Aq. Solubility
[2] = biological target: AMPK (hum) (Homo sapiens, UniProt Q13131); test: Kinase screen; type: biochemical
Text: (§1) With verapamil used as a positive control.
(§2) V. Distribution coefficient (LogD7.4)

[3] = biological target: Aurora A (Homo sapiens, UniProt O14965); test: Kinase screen; type: biochemical
Text: as §1, §2

[4] = biological target: BRSK1 (Homo sapiens, UniProt Q8TDC3); test: Kinase screen; type: biochemical
Text: as §1, §2

[5] = biological target: CAMK1 (Homo sapiens, UniProt Q14012); test: Kinase screen; type: biochemical
Text: as §1, §2

[6] = biological target: CAMKKb (Homo sapiens, UniProt Q96RR4); test: Kinase screen; type: biochemical
Text: as §1, §2

[7] = biological target: CHK1 (Homo sapiens, UniProt O14757); test: Kinase screen; type: biochemical
Text: as §1, §2

[8] = biological target: DDR2 (Homo sapiens, UniProt Q16832); test: Kinase screen; type: biochemical
Text: as §1, §2

[9] = biological target: EF2K (Homo sapiens, UniProt O00418); test: Kinase screen; type: biochemical
Text: as §1, §2

[10] = biological target: EPH-A2 (Homo sapiens, UniProt P29317); test: Kinase screen; type: biochemical
Text: as §1, §2

[11] = biological target: EPH-B1 (Homo sapiens, UniProt P54762); test: Kinase screen; type: biochemical
Text: as §1, §2

[12] = biological target: EPH-B2 (Homo sapiens, UniProt P29323); test: Kinase screen; type: biochemical
Text: as §1, §2

[13] = biological target: EPH-B3 (Homo sapiens, UniProt P54753); test: Kinase screen; type: biochemical
Text: as §1, §2

[14] = biological target: ERK1 (Homo sapiens, UniProt P27361); test: Kinase screen; type: biochemical
Text: as §1, §2

[15] = biological target: ERK5 (Homo sapiens, UniProt Q13164); test: Kinase screen; type: biochemical
Text: as §1, §2

[16] = biological target: HER4 (Homo sapiens, UniProt Q15303); test: Kinase screen; type: biochemical
Text: as §1, §2

[17] = biological target: HIPK1 (Homo sapiens, UniProt Q86Z02); test: Kinase screen; type: biochemical
Text: as §1, §2

[18] = biological target: IKKb (Homo sapiens, UniProt O14920); test: Kinase screen; type: biochemical
Text: as §1, §2

[19] = biological target: IKKe (Homo sapiens, UniProt Q14164); test: Kinase screen; type: biochemical
Text: as §1, §2

[20] = biological target: JNK1 (Homo sapiens, UniProt P45983); test: Kinase screen; type: biochemical
Text: as §1, §2

[21] = biological target: MAP4K3 (Homo sapiens, UniProt Q8IVH8); test: Kinase screen; type: biochemical
Text: as §1, §2

[22] = biological target: MAPKAP-K2 (Homo sapiens, UniProt P49137); test: Kinase screen; type: biochemical
Text: as §1, §2

[23] = biological target: MARK3 (Homo sapiens, UniProt P27448); test: Kinase screen; type: biochemical
Text: as §1, §2

[24] = biological target: MARK4 (Homo sapiens, UniProt Q96L34); test: Kinase screen; type: biochemical
Text: as §1, §2

[25] = biological target: MELK (Homo sapiens, UniProt Q14680); test: Kinase screen; type: biochemical
Text: as §1, §2

[26] = biological target: MINK1 (Homo sapiens, UniProt Q8N4C8); test: Kinase screen; type: biochemical
Text: as §1, §2

[27] = biological target: MKK6 (Homo sapiens, UniProt P52564); test: Kinase screen; type: biochemical
Text: as §1, §2

[28] = biological target: MST3 (Homo sapiens, UniProt Q9Y6E0); test: Kinase screen; type: biochemical
Text: as §1, §2

[29] = biological target: NEK2a (Homo sapiens, UniProt P51955); test: Kinase screen; type: biochemical
Text: as §1, §2

[30] = biological target: PAK5 (Homo sapiens, UniProt Q9P286); test: Kinase screen; type: biochemical
Text: as §1, §2

[31] = biological target: PHK (Homo sapiens, UniProt Q16816); test: Kinase screen; type: biochemical
Text: as §1, §2

[32] = biological target: PIM2 (Homo sapiens, UniProt Q9P1W9); test: Kinase screen; type: biochemical
Text: as §1, §2

[33] = biological target: PKA (Homo sapiens, UniProt P17612); test: Kinase screen; type: biochemical
Text: as §1, §2

[34] = biological target: PKD1 (Homo sapiens, UniProt Q15139); test: Kinase screen; type: biochemical
Text: as §1, §2

[35] = biological target: PRAK (Homo sapiens, UniProt Q8IW41); test: Kinase screen; type: biochemical
Text: as §1, §2

[36] = biological target: PRK2 (Homo sapiens, UniProt Q16513); test: Kinase screen; type: biochemical
Text: as §1, §2

[37] = biological target: STK33 (Homo sapiens, UniProt Q9BYT3); test: Kinase screen; type: biochemical
Text: as §1, §2

[38] = biological target: SYK (Homo sapiens, UniProt P43405); test: Kinase screen; type: biochemical
Text: as §1, §2

[39] = biological target: SmMLCK (Homo sapiens, UniProt Q15746); test: Kinase screen; type: biochemical
Text: as §1, §2

[40] = biological target: TESK1 (Homo sapiens, UniProt Q15569); test: Kinase screen; type: biochemical
Text: as §1, §2

[41] = biological target: TLK1 (Homo sapiens, UniProt Q9UKI8); test: Kinase screen; type: biochemical
Text: as §1, §2

[42] = biological target: TTBK2 (Homo sapiens, UniProt Q6IQ55); test: Kinase screen; type: biochemical
Text: as §1, §2

[43] = biological target: TTK (Homo sapiens, UniProt P33981); test: Kinase screen; type: biochemical
Text: as §1, §2

[44] = biological target: ULK2 (Homo sapiens, UniProt Q8IYT8); test: Kinase screen; type: biochemical
Text: as §1, §2

[45] = biological target: WNK1 (Homo sapiens, UniProt Q9H4A3); test: Kinase screen; type: biochemical
Text: as §1, §2

[46] = biological target: p38b MAPK (Homo sapiens, UniProt Q15759); test: Kinase screen; type: biochemical
Text: as §1, §2

DDR2, sequence (Q16832 22-855): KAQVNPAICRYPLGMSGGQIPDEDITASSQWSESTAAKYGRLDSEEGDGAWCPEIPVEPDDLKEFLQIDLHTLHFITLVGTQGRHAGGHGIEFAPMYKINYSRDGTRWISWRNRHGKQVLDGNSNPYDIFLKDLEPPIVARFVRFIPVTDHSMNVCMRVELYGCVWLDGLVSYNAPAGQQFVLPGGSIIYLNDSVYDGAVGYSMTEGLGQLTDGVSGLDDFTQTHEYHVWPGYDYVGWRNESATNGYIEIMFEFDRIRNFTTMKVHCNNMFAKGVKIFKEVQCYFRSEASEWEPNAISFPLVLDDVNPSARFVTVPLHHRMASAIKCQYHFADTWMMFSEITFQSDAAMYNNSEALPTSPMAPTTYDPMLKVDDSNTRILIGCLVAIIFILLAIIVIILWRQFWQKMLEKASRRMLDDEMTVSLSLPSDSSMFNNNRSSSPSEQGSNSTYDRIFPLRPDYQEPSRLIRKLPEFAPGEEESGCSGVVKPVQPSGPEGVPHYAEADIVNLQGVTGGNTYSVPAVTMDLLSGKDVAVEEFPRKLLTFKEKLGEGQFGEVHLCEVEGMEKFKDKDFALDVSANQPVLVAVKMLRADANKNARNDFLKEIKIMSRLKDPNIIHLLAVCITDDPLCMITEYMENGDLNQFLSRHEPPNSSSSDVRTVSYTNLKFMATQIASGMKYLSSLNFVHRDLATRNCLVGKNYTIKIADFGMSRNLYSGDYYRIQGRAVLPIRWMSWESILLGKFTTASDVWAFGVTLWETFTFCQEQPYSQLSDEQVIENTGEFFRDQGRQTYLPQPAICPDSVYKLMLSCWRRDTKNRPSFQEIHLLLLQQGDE
TESK1, sequence (Q15569 whole entry): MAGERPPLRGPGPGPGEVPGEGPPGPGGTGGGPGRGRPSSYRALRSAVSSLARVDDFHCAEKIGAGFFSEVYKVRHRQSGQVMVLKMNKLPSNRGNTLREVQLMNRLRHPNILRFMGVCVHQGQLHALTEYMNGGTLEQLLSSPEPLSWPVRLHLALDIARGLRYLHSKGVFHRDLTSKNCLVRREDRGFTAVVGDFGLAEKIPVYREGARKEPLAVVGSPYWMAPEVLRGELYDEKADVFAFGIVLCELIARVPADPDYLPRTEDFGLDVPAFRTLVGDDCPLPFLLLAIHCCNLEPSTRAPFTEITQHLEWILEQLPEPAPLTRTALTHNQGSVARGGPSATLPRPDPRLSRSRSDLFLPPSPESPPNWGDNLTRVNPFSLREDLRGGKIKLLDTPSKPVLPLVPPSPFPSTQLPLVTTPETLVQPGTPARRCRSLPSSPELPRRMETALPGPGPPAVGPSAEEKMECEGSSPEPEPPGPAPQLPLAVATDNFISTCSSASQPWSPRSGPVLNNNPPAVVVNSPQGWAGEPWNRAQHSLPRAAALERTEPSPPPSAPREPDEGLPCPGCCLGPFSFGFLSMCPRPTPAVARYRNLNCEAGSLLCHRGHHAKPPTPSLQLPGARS
TTBK2, sequence (Q6IQ55 whole entry): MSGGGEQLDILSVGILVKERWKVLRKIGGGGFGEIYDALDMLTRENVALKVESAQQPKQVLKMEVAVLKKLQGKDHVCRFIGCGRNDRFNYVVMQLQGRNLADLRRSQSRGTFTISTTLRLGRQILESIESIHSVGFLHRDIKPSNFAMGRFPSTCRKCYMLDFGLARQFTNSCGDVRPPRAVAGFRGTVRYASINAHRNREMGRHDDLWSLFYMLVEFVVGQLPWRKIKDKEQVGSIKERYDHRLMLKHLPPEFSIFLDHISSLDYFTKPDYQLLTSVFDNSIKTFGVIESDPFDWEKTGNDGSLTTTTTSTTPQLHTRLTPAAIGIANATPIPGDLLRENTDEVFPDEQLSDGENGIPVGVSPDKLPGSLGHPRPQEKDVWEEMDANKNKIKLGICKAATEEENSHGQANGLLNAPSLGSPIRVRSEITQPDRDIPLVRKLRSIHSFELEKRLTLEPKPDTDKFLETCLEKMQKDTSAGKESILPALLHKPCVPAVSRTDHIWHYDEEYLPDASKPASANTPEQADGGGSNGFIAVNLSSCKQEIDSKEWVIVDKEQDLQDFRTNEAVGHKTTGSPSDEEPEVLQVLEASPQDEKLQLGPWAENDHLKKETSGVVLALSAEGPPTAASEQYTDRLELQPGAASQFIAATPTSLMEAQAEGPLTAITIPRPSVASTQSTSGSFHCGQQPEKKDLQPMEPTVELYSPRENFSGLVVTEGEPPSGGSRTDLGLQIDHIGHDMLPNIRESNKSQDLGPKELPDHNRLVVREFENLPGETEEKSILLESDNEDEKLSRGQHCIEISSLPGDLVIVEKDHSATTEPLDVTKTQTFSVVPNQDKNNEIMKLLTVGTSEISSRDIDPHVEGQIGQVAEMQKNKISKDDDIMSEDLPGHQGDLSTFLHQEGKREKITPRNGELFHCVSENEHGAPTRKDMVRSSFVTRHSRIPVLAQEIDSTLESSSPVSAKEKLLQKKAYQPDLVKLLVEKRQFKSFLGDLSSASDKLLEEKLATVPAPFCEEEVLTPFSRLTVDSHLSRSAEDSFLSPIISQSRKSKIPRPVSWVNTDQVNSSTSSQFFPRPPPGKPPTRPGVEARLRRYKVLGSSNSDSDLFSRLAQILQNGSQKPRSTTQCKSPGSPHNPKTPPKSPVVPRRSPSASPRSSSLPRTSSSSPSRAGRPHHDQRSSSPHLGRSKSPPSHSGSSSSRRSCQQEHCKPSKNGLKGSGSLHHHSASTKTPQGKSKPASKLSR
ERK5, sequence (Q13164 whole entry): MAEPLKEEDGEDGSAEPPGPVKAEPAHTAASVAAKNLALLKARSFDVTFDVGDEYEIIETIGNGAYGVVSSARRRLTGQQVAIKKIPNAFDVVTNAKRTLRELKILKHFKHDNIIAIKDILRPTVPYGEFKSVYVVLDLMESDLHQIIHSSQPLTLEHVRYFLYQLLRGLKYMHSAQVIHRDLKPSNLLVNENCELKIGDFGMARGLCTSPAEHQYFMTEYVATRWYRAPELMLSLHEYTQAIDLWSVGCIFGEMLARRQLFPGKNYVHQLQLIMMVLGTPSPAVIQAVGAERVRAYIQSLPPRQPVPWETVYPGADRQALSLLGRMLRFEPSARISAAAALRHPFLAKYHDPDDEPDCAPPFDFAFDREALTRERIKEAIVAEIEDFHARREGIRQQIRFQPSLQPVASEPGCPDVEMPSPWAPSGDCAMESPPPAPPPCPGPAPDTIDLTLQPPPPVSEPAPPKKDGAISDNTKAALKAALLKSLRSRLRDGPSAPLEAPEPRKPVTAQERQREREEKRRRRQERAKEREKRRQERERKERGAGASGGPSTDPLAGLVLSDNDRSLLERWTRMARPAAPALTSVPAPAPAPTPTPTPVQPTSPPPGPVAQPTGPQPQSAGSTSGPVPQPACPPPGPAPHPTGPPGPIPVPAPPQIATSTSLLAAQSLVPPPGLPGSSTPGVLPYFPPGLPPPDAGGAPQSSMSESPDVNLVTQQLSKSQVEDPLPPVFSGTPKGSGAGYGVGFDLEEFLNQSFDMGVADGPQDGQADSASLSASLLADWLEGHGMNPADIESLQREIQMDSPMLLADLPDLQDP
ULK2, sequence (Q8IYT8 whole entry): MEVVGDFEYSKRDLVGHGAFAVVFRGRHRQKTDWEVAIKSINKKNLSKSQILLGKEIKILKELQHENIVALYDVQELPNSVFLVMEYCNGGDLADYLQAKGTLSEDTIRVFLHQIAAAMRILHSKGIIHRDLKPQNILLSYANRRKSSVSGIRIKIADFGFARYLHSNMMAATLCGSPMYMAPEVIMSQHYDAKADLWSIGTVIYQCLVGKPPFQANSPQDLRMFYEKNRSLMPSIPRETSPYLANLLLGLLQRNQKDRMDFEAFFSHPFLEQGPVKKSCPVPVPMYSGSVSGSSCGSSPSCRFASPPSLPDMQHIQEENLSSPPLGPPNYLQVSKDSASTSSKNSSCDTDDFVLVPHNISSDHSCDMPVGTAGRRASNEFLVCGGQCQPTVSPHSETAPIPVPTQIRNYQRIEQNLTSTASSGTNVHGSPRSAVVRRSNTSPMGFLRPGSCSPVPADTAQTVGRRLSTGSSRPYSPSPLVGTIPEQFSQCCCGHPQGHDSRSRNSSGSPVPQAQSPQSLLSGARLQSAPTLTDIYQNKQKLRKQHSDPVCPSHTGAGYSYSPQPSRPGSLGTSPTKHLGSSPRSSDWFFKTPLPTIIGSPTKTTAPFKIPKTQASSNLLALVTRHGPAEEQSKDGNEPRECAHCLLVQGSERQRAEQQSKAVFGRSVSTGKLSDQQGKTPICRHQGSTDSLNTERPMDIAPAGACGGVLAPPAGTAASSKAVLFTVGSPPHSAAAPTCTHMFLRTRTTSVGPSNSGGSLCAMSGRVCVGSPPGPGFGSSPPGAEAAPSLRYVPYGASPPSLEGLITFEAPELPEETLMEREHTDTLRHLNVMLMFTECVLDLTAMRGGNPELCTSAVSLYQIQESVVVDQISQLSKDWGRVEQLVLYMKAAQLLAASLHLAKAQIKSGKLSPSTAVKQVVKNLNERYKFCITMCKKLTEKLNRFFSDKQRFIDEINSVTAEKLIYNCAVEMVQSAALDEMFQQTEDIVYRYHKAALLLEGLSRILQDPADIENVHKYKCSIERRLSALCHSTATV
PIM2, sequence (Q9P1W9 whole entry): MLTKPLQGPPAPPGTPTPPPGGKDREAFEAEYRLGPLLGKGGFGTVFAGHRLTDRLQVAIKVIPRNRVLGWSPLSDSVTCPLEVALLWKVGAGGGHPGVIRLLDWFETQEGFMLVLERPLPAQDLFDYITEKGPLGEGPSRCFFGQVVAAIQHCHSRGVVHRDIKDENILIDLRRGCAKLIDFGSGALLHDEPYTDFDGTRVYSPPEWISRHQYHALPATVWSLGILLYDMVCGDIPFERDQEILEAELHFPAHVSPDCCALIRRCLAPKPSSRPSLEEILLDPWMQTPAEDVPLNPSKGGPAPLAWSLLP

`CCN(CC)Cc1ccc(OC)c(-c2cc3c(-c4ccc(C(=O)O)c(C(C)C)c4)ccnc3[nH]2)c1` [analogue 1, 4-(2-(5-((Diethylamino)methyl)-2-methoxyphenyl)-1H-pyrrolo[2,3-b]pyridin-4-yl)-2-isopropylbenzoic Acid] gave a solubility [1] of 8 µg/mL (≈ 17 µM), an activity at 1 µM [2] of 30% and an activity at 1 µM [3] of 17%. For the same compound, the activity at 1 µM [4] was 66%, the activity at 1 µM [5] was 86% and the activity at 1 µM [6] was 2%. For the same compound, the activity at 1 µM [7] was 78%, the activity at 1 µM [8] was 21% and the activity at 1 µM [9] was 113%. It also gave an activity at 1 µM [10] of 64%, an activity at 1 µM [11] of 124% and an activity at 1 µM [12] of 100%. The activity at 1 µM [13] was 108%, the activity at 1 µM [14] was 100% and the activity at 1 µM [15] was 54%. The activity at 1 µM [16] was 112%, the activity at 1 µM [17] was 83% and the activity at 1 µM [18] was 144%. It also gave an activity at 1 µM [19] of 52%, an activity at 1 µM [20] of 85% and an activity at 1 µM [21] of 1%. It also gave an activity at 1 µM [22] of 102%, an activity at 1 µM [23] of 34% and an activity at 1 µM [24] of 59%. It also gave an activity at 1 µM [25] of 85%, an activity at 1 µM [26] of 44% and an activity at 1 µM [27] of 100%. The activity at 1 µM [28] was 62%, the activity at 1 µM [29] was 87% and the activity at 1 µM [30] was 75%. It also gave an activity at 1 µM [31] of 10%, an activity at 1 µM [32] of 93% and an activity at 1 µM [33] of 103%. The activity at 1 µM [34] was 85%, the activity at 1 µM [35] was 88% and the activity at 1 µM [36] was 48%. It also gave an activity at 1 µM [37] of 44%, an activity at 1 µM [38] of 89% and an activity at 1 µM [39] of 80%. It also gave an activity at 1 µM [40] of 78%, an activity at 1 µM [41] of 106% and an activity at 1 µM [42] of 114%. The activity at 1 µM [43] was 86%, the activity at 1 µM [44] was 96% and the activity at 1 µM [45] was 105%. The activity at 1 µM [46] was 112%.

Source: publication PMC7497403, “Development of Potent PfCLK3 Inhibitors Based on TCMDC-135051 as a New Class of Antimalarials” (Journal of Medicinal Chemistry, 2020)
